Assay results as given in PubChem BioAssay (NCI).
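A five-concentration, 48-hour dose response in 96-well plates underlies each endpoint, interpolated linearly between surrounding concentrations. GI50 is the concentration that inhibits growth by half. TGI: total growth inhibition.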

What was measured:
Test in all cases: NCI-60 cell line screen, 48 h; in the data active means GI50 below about 0.43 µM; inactive means the rest
HCT-116 colon = tested on: HCT-116 colon
HL-60(TB) leukemia = tested on: HL-60(TB) leukemia
SF-539 CNS = tested on: SF-539 CNS
PC-3 prostate = tested on: PC-3 prostate
SR leukemia = tested on: SR leukemia
UACC-62 melanoma = tested on: UACC-62 melanoma
SF-268 CNS = tested on: SF-268 CNS
EKVX NSCLC = tested on: EKVX NSCLC
HCC-2998 colon = tested on: HCC-2998 colon
CCRF-CEM leukemia = tested on: CCRF-CEM leukemia
SNB-75 CNS = tested on: SNB-75 CNS
786-0 renal = tested on: 786-0 renal
MCF7 breast = tested on: MCF7 breast
A498 renal = tested on: A498 renal
A549 NSCLC = tested on: A549 NSCLC
UO-31 renal = tested on: UO-31 renal
HS 578T breast = tested on: HS 578T breast
T-47D breast = tested on: T-47D breast
K-562 leukemia = tested on: K-562 leukemia
IGROV1 ovarian = tested on: IGROV1 ovarian
MALME-3M melanoma = tested on: MALME-3M melanoma
MDA-MB-231 breast = tested on: MDA-MB-231 breast
OVCAR-3 ovarian = tested on: OVCAR-3 ovarian
OVCAR-8 ovarian = tested on: OVCAR-8 ovarian
LOX IMVI melanoma = tested on: LOX IMVI melanoma
ACHN renal = tested on: ACHN renal
MOLT-4 leukemia = tested on: MOLT-4 leukemia
TK-10 renal = tested on: TK-10 renal
HOP-92 NSCLC = tested on: HOP-92 NSCLC
UACC-257 melanoma = tested on: UACC-257 melanoma
U251 CNS = tested on: U251 CNS
NCI-H226 lung = tested on: NCI-H226 lung
CAKI-1 renal = tested on: CAKI-1 renal
HOP-62 NSCLC = tested on: HOP-62 NSCLC
MDA-MB-435 = tested on: MDA-MB-435
NCI-H522 lung = tested on: NCI-H522 lung
NCI-H460 lung = tested on: NCI-H460 lung
HCT-15 colon = tested on: HCT-15 colon
SF-295 CNS = tested on: SF-295 CNS
SK-MEL-2 melanoma = tested on: SK-MEL-2 melanoma
M14 melanoma = tested on: M14 melanoma
HT29 colon = tested on: HT29 colon
OVCAR-5 ovarian = tested on: OVCAR-5 ovarian
SN12C renal = tested on: SN12C renal
SK-MEL-28 melanoma = tested on: SK-MEL-28 melanoma
RXF 393 renal = tested on: RXF 393 renal
SK-OV-3 ovarian = tested on: SK-OV-3 ovarian
NCI-H23 lung = tested on: NCI-H23 lung
SK-MEL-5 melanoma = tested on: SK-MEL-5 melanoma
SNB-19 CNS = tested on: SNB-19 CNS
OVCAR-4 ovarian = tested on: OVCAR-4 ovarian
NCI/ADR-RES ovarian = tested on: NCI/ADR-RES ovarian
KM12 colon = tested on: KM12 colon
RPMI-8226 leukemia = tested on: RPMI-8226 leukemia
COLO 205 colon = tested on: COLO 205 colon
DU-145 prostate = tested on: DU-145 prostate
SW-620 colon = tested on: SW-620 colon

N#C/C(=C\c1ccc(Br)cc1)n1nnc2c(F)cccc21
2.24 µM: TGI (UO-31 renal)
3.13 µM: TGI (CCRF-CEM leukemia)
6.5 µM: TGI (TK-10 renal)
active: GI50 (SNB-75 CNS) 0.043 µM | GI50 (T-47D breast) 0.353 µM | GI50 (K-562 leukemia) 0.386 µM | GI50 (OVCAR-3 ovarian) 0.275 µM | GI50 (HOP-92 NSCLC) 0.156 µM
5.45 µM: TGI (SF-539 CNS)
2.91 µM: TGI (786-0 renal)
0.845 µM: TGI (OVCAR-3 ovarian)
3.18 µM: TGI (HCC-2998 colon)
4.78 µM: TGI (T-47D breast)
2.05 µM: TGI (PC-3 prostate)
3.02 µM: TGI (IGROV1 ovarian)
3.93 µM: TGI (MALME-3M melanoma)
> 100 µM: TGI (HL-60(TB) leukemia) | TGI (SR leukemia) | TGI (SF-268 CNS) | TGI (EKVX NSCLC) | TGI (MCF7 breast) | TGI (A549 NSCLC) | TGI (HS 578T breast) | TGI (K-562 leukemia) | TGI (OVCAR-8 ovarian) | TGI (MOLT-4 leukemia)
4.48 µM: TGI (HOP-92 NSCLC)
inactive: GI50 (HCT-116 colon) 0.503 µM | GI50 (HL-60(TB) leukemia) 2.45 µM | GI50 (SF-539 CNS) 2.21 µM | GI50 (PC-3 prostate) 0.472 µM | GI50 (SR leukemia) 0.441 µM | GI50 (UACC-62 melanoma) 0.697 µM | GI50 (SF-268 CNS) 3.11 µM | GI50 (EKVX NSCLC) 1.75 µM | GI50 (HCC-2998 colon) 1.71 µM | GI50 (CCRF-CEM leukemia) 0.657 µM | GI50 (786-0 renal) 1.29 µM | GI50 (MCF7 breast) 0.768 µM | GI50 (A498 renal) 1.36 µM | GI50 (A549 NSCLC) 1.93 µM | GI50 (UO-31 renal) 1.04 µM | GI50 (HS 578T breast) 3.39 µM | GI50 (IGROV1 ovarian) 0.715 µM | GI50 (MALME-3M melanoma) 1.44 µM | GI50 (MDA-MB-231 breast) 1.28 µM | GI50 (OVCAR-8 ovarian) 2.87 µM | GI50 (LOX IMVI melanoma) 1.41 µM | GI50 (ACHN renal) 1.04 µM | GI50 (MOLT-4 leukemia) 2.48 µM | GI50 (TK-10 renal) 2.36 µM
2.38 µM: TGI (ACHN renal)
5.04 µM: TGI (SNB-75 CNS)
4.65 µM: TGI (A498 renal)
4.17 µM: TGI (MDA-MB-231 breast)
1.94 µM: TGI (HCT-116 colon)
2.17 µM: TGI (UACC-62 melanoma)
2.77 µM: TGI (LOX IMVI melanoma)

CC1(C)CC[C@]2(C(=O)Nc3ccccn3)CC[C@]3(C)C(=CC[C@@H]4[C@@]5(C)C/C(=C/c6ccncc6)C(=O)C(C)(C)[C@@H]5CC[C@]43C)[C@@H]2C1
5.68 µM: TGI (HL-60(TB) leukemia)
67.3 µM: TGI (IGROV1 ovarian)
inactive: GI50 (UACC-257 melanoma) 2.2 µM | GI50 (U251 CNS) 1.82 µM | GI50 (HL-60(TB) leukemia) 1.24 µM | GI50 (PC-3 prostate) 0.624 µM | GI50 (NCI-H226 lung) 1.97 µM | GI50 (CAKI-1 renal) 2.69 µM | GI50 (HOP-62 NSCLC) 4.41 µM | GI50 (MDA-MB-435) 2.58 µM | GI50 (NCI-H522 lung) 2.09 µM | GI50 (NCI-H460 lung) 1.51 µM | GI50 (HCT-15 colon) 1.85 µM | GI50 (SF-295 CNS) 2.37 µM | GI50 (SR leukemia) 0.702 µM | GI50 (SK-MEL-2 melanoma) 3.63 µM | GI50 (UACC-62 melanoma) 1.85 µM | GI50 (SF-268 CNS) 9.45 µM | GI50 (EKVX NSCLC) 3.8 µM | GI50 (HCC-2998 colon) 1.81 µM | GI50 (M14 melanoma) 2.85 µM | GI50 (CCRF-CEM leukemia) 2.3 µM | GI50 (HT29 colon) 2.17 µM | GI50 (786-0 renal) 2.88 µM | GI50 (OVCAR-5 ovarian) 4.14 µM | GI50 (MCF7 breast) 0.938 µM | GI50 (A498 renal) 2.05 µM | GI50 (SN12C renal) 2.57 µM | GI50 (A549 NSCLC) 2 µM | GI50 (UO-31 renal) 1.38 µM | GI50 (HS 578T breast) 2.96 µM | GI50 (T-47D breast) 1.68 µM | GI50 (K-562 leukemia) 1.78 µM | GI50 (IGROV1 ovarian) 3.12 µM | GI50 (MALME-3M melanoma) 2.25 µM | GI50 (MDA-MB-231 breast) 2.92 µM | GI50 (OVCAR-8 ovarian) 3.76 µM | GI50 (SK-MEL-28 melanoma) 2.28 µM | GI50 (RXF 393 renal) 1.67 µM | GI50 (SK-OV-3 ovarian) > 100 µM | GI50 (NCI-H23 lung) 3.18 µM | GI50 (SK-MEL-5 melanoma) 1.59 µM | GI50 (SNB-19 CNS) 5.82 µM | GI50 (ACHN renal) 2.08 µM | GI50 (OVCAR-4 ovarian) 2.9 µM | GI50 (MOLT-4 leukemia) 2.27 µM | GI50 (TK-10 renal) 5.75 µM | GI50 (HOP-92 NSCLC) 1.24 µM | GI50 (NCI/ADR-RES ovarian) 4.48 µM
3.1 µM: TGI (SK-MEL-5 melanoma)
6.04 µM: TGI (NCI-H226 lung)
5.18 µM: TGI (A498 renal)
4.82 µM: TGI (HCC-2998 colon)
6.63 µM: TGI (HCT-15 colon)
27.7 µM: TGI (NCI-H522 lung)
3.9 µM: TGI (NCI-H460 lung)
5.98 µM: TGI (ACHN renal)
8.89 µM: TGI (UACC-62 melanoma)
3.37 µM: TGI (RXF 393 renal)
4.32 µM: TGI (U251 CNS)
2.74 µM: TGI (UO-31 renal)
6.59 µM: TGI (SK-MEL-28 melanoma)
19.5 µM: TGI (MDA-MB-231 breast)
6.15 µM: TGI (MALME-3M melanoma)
15.3 µM: TGI (MCF7 breast)
29.3 µM: TGI (SF-295 CNS)
> 100 µM: TGI (UACC-257 melanoma) | TGI (PC-3 prostate) | TGI (CAKI-1 renal) | TGI (HOP-62 NSCLC) | TGI (MDA-MB-435) | TGI (SR leukemia) | TGI (SK-MEL-2 melanoma) | TGI (SF-268 CNS) | TGI (EKVX NSCLC) | TGI (M14 melanoma) | TGI (CCRF-CEM leukemia) | TGI (HT29 colon) | TGI (786-0 renal) | TGI (OVCAR-5 ovarian) | TGI (SN12C renal) | TGI (A549 NSCLC) | TGI (HS 578T breast) | TGI (T-47D breast) | TGI (K-562 leukemia) | TGI (OVCAR-8 ovarian) | TGI (SK-OV-3 ovarian) | TGI (NCI-H23 lung) | TGI (SNB-19 CNS) | TGI (OVCAR-4 ovarian) | TGI (MOLT-4 leukemia) | TGI (TK-10 renal) | TGI (NCI/ADR-RES ovarian)
7 µM: TGI (HOP-92 NSCLC)

CCC(=O)OC1=C(c2ccccc2)Sc2ccc(Cl)cc2-n2cccc21
> 10 µM: TGI (UACC-257 melanoma) | TGI (HL-60(TB) leukemia) | TGI (PC-3 prostate) | TGI (CAKI-1 renal) | TGI (HOP-62 NSCLC) | TGI (HCT-15 colon) | TGI (SF-295 CNS) | TGI (SR leukemia) | TGI (KM12 colon) | TGI (UACC-62 melanoma) | TGI (SF-268 CNS) | TGI (EKVX NSCLC) | TGI (HCC-2998 colon) | TGI (M14 melanoma) | TGI (CCRF-CEM leukemia) | TGI (HT29 colon) | TGI (SNB-75 CNS) | TGI (786-0 renal) | TGI (MCF7 breast) | TGI (RPMI-8226 leukemia) | TGI (SN12C renal) | TGI (A549 NSCLC) | TGI (COLO 205 colon) | TGI (T-47D breast) | TGI (K-562 leukemia) | TGI (IGROV1 ovarian) | TGI (MALME-3M melanoma) | TGI (MDA-MB-231 breast) | TGI (OVCAR-8 ovarian) | TGI (LOX IMVI melanoma) | TGI (SK-MEL-28 melanoma) | TGI (RXF 393 renal) | TGI (SK-OV-3 ovarian) | TGI (NCI-H23 lung) | TGI (SK-MEL-5 melanoma) | TGI (OVCAR-4 ovarian) | TGI (MOLT-4 leukemia) | TGI (DU-145 prostate) | TGI (TK-10 renal) | TGI (SW-620 colon) | TGI (HOP-92 NSCLC)
5.28 µM: TGI (MDA-MB-435)
